Laboratory results as given in publication PMC11364104, “Discovery of SARS-CoV-2 papain-like protease (PL^pro) inhibitors with efficacy in a murine infection model” (Science Advances, 2024).
pIC50: −log10 of the molar value. Values after ≈ are worked out from the molar mass of the structure shown. Read-outs that look alike come from different tables or passages of the source.

Columns and labels:
Thermodynamic solubility = format: physicochemical; details: pH 7.4, aqueous buffer, thermodynamic from solid
Human Cathepsin K = target: T1, Human Cathepsin K (Homo sapiens, UniProt P43235); test: biochemical
T1 construct: assay run at Reaction Biology Corporation

Adenosine A2a = target: T2, Adenosine A2a (Homo sapiens, UniProt P29274); test: CEREP functional agonism; format: cell-based; details: 30 µM
T2 construct: purchased Eurofins Cerep

LogD = format: physicochemical
Dog pharmacokinetics = format: in vivo, Beagle dog; details: for Vd: read-out: Vdss
Method: from Vital River (Beijing, China) and were typically 7-9 weeks of age at the time of dosing.
During the pharmacokinetic studies all animals were housed individually. Access to food and water was provided ad libitum (i.e., subjects were dosed in the fed state). In the instances where oral (po) dose was administered in the fed state, with ad libitum access to food and water. Compounds were administered intravenously (iv) via the tail vein (n = 2) dosed as a solution (1 mg/kg, 3 ml/kg) or via oral gavage as a solution (10 mg/kg, 10 ml/kg). Dosing solutions were prepared immediately before dosing. The composition of each dosing vehicle […]
Serial blood samples were collected via the jugular vein cannula at predetermined timepoints after dosing. Animals were monitored for pain or distress throughout the study, with at least daily monitoring during normal husbandry prior to study start. At the completion of the study, animals were euthanized by overdose of inhaled carbon dioxide. Blood samples were collected into tubes containing K2EDTA and stored on ice until centrifugation to obtain plasma, which was stored frozen at - 20 °C or lower.
Dog pharmacokinetic studies were done at Pfizer (Groton, CT). All procedures performed on beagle dogs were in accordance with regulations and established guidelines and were reviewed and approved by an Institutional Animal Care and Use Committee through an ethical review process. Male Beagle dogs were purchased from Marshall Bioresources (North Rose, NY); subjects 3 years of age were used in pharmacokinetics studies. For each study (n=2), compounds were dosed iv by cephalic vein as a solution (0.5 mg/kg, 1 mL/kg) or via oral gavage as a suspension (3 mg/kg, 5 mL/kg). In the instances where oral (po) dose was administered in the fed state, dogs were fed a couple hours before dosing. In the instances where the IV dose was administered in the fasted state, dogs were fasted over night and fed 4 hours post dose. Subjects were monitored for pain or distress throughout the study followed by at least daily monitoring while off study. The iv dosing vehicle was optimized such that the compounds were in solution and stable for at least 24 h. Serial blood samples were collected via the jugular vein at predefined time points post-dose. Blood samples were collected into K3EDTA treated collection tubes and were stored on wet ice prior to being centrifuged to obtain plasma, which was stored frozen at - 20 °C or lower.
Monkey pharmacokinetic studies were conducted at Pfizer (Groton, CT). All procedures performed on Cynomolgus monkeys were in accordance with regulations and established guidelines and were reviewed and approved by an Institutional Animal Care and Use Committee through an ethical review process. Male Cynomolgus monkeys were purchased from Envigo Global Services (Indianapolis, IN); subjects 5-8 years of age were used in pharmacokinetic studies. For each study (n=2), compounds were dosed iv by the cephalic vein (typically 1 mg/kg, 2 ml/kg). Subjects were monitored for pain or distress throughout the study followed by at least daily monitoring while off study. The iv dosing vehicle was optimized such that the compounds were in solution and stable for at least 24 h.
Serial blood samples were collected via the femoral vein at predefined time points post-dose. Blood samples were collected into K3EDTA treated collection tubes and were stored on wet ice prior to being centrifuged to obtain plasma, which was stored frozen at -20 °C or […]
LC-MS/MS Analysis of Plasma Samples
Plasma samples were processed using protein precipitation with 50:50 acetonitrile: methanol containing terfenadine (5 ng/ml) as an internal standard followed by quantitation against a standard curve (0.1-1000 ng/ml) prepared in blank plasma. Quantitation of analyte in plasma samples was done using LC-MS/MS. Standard and quality control samples, prepared in blank plasma were extracted in the same manner as the in-life samples. Briefly, a Waters […]

NMDA Receptor (PCP site) = test: CEREP ion channel-binding; details: 30 µM
in vitro = details: male, cynomolgus monkey, plasma
[1] = plasma, Male Beagle Dog, 0.5 mg/kg iv, solution, mean n=2
[2] = plasma, Male Beagle Dog, 3.0 mg/kg po, suspension, mean n=2

T2 sequence (P29274 whole entry): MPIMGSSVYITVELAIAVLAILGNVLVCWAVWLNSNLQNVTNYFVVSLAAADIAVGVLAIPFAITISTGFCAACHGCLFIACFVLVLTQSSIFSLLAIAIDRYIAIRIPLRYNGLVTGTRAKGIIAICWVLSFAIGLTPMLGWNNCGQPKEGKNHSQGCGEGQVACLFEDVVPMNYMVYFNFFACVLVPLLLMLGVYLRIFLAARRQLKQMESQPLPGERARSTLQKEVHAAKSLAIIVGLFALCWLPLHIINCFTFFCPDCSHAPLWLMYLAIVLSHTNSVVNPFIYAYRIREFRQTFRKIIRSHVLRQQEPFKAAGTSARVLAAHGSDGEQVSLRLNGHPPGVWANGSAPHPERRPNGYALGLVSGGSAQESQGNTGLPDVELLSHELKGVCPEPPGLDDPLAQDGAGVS
T1 sequence (P43235 115-329): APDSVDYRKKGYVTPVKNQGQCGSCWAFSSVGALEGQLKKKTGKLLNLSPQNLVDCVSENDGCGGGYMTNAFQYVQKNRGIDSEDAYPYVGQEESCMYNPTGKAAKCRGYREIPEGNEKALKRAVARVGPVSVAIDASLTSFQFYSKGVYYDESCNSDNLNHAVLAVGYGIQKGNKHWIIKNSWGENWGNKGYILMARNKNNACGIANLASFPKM

In the case of `Cc1ccc(N2CCN(C)CC2)cc1C(=O)NC1(c2cc(-c3cnn(C)c3)nc3ccccc23)CC1` [Compound 4], the solubility thermodynamic (Thermodynamic solubility) was 541 µM (≈ 260 µg/mL), the pIC50 (Human Cathepsin K) was < 4.00 and the “% response” value (Adenosine A2a) was 0%. The logD (LogD) was 2.5, the “Oral F” value (Dog pharmacokinetics; Male Beagle Dog, 3.0 mg/kg po, suspension, mean n=2) was 41.0% and the Vd (Dog pharmacokinetics; male, Beagle, plasma, 0.5 mg/kg, dog (d), intravenous) was 1.59 L/kg. It also gave a bioavailability (Dog pharmacokinetics; male, Beagle, plasma, po, 3 mg/kg, dog (d), read-out: Oral F (%)) of 41%, an AUC(0-inf) (Dog pharmacokinetics; [1]) of 640 ng·h/mL and a half-life (Dog pharmacokinetics; [1]) of 124 min. The clearance (Dog pharmacokinetics; plasma, Male Beagle Dog, 0.5 mg/kg iv, solution, mean n=2, read-out: CLp) was 13.4 mL/min/kg, the Vd (Dog pharmacokinetics; [1]) was 1.59 L/kg and the AUC(0-inf) (Dog pharmacokinetics; [2]) was 1580 ng·h/mL. The Cmax (Dog pharmacokinetics; [2]) was 354 ng/mL, the Tmax (Dog pharmacokinetics; [2]) was 1 h and the half-life (Dog pharmacokinetics; [2]) was 151 min. For the same compound, the “% inhibition” value (NMDA Receptor (PCP site)) was 14% and the fraction unbound (in vitro) was 0.101.
